Assay results from PubChem BioAssay AID330 (DTP/NCI, 2004).
Several values for one entry are separate records, joined by “and”; a condition that tells them apart may be missing. Equal entries are not always repeated. Inconclusive results and toxic doses are left out. The calls were made as follows: active = survival T/C of 150% or more; inactive = T/C below 125% in these data.

System: P388 leukemia ip, CD2F1 mice, survival T/C
Assay: NCI In Vivo Anticancer Drug Screen. Data for tumor model P388 Leukemia (intraperitoneal) in CD2F1 (CDF1) mice
Conditions: endpoint: median survival time, higher = longer survival
How it was run: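 Mice carrying the transplanted tumor received test compound or vehicle. Survival was recorded in each group, and the value is the treated-group measurement divided by that of the vehicle-treated control group.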

[1] = dose: 50.0 mg/kg/injection, schedule: Q01DX009 (ip), vehicle: saline with Tween-80

Measured: T/C

Cc1cc(O)cc(O)c1C(=O)OC1CC2(C)C3CC(C)(C)CC3C=C(C=O)C12O (configuration not stated)
inactive: dose: 1.5 mg/kg/injection, schedule: Q01DX005 (ip), vehicle: Klucel + Tween-80 107 % of control | dose: 3.0 mg/kg/injection, schedule: Q01DX005 (ip), vehicle: Klucel + Tween-80 97 % of control | dose: 6.0 mg/kg/injection, schedule: Q01DX005 (ip), vehicle: Klucel + Tween-80 103 % of control | dose: 12.0 mg/kg/injection, schedule: Q01DX005 (ip), vehicle: Klucel + Tween-80 99 % of control

Cc1ccc(NC(=S)SCc2ccco2)cc1Cl
inactive: dose: 50.0 mg/kg/injection, schedule: Q01DX009 (ip), vehicle: suspension in saline 100 % of control | dose: 100.0 mg/kg/injection, schedule: Q01DX009 (ip), vehicle: suspension in saline 103 % of control | dose: 200.0 mg/kg/injection, schedule: Q01DX009 (ip), vehicle: suspension in saline 109 % of control

CNc1cc[nH]c(=O)c1NC(C)=O
inactive: dose: 60.0 mg/kg/injection, schedule: Q01DX005 (ip), vehicle: saline 100 % of control | dose: 120.0 mg/kg/injection, schedule: Q01DX005 (ip), vehicle: saline 101 % of control | dose: 240.0 mg/kg/injection, schedule: Q01DX005 (ip), vehicle: saline 106 % of control

c1ccc(-c2cc3cc4c(cc3[nH]2)Oc2ccccc2O4)cc1
inactive: dose: 17.5 mg/kg/injection, schedule: Q01DX009 (ip), vehicle: Klucel (hydroxypropylcellulose) (HPC) 100 % of control and 103 % of control and 109 % of control | dose: 35.0 mg/kg/injection, schedule: Q01DX009 (ip), vehicle: Klucel (hydroxypropylcellulose) (HPC) 100 % of control (2×) and 105 % of control | dose: 70.0 mg/kg/injection, schedule: Q01DX009 (ip), vehicle: Klucel (hydroxypropylcellulose) (HPC) 100 % of control and 103 % of control and 122 % of control | dose: 140.0 mg/kg/injection, schedule: Q01DX009 (ip), vehicle: Klucel (hydroxypropylcellulose) (HPC) 100 % of control

C1CCCCCC2OC2CCCC1 (configuration not stated)
inactive: dose: 50.0 mg/kg/injection, schedule: Q04DX003 (ip), vehicle: Klucel (hydroxypropylcellulose) (HPC) 107 % of control | dose: 100.0 mg/kg/injection, schedule: Q04DX003 (ip), vehicle: Klucel (hydroxypropylcellulose) (HPC) 112 % of control | dose: 200.0 mg/kg/injection, schedule: Q04DX003 (ip), vehicle: Klucel (hydroxypropylcellulose) (HPC) 107 % of control

COc1cccc(N=Nc2c(N)nc(N)nc2N)c1
inactive: dose: 12.5 mg/kg/injection, schedule: Q01DX009 (ip), vehicle: saline with Tween-80 100 % of control | dose: 25.0 mg/kg/injection, schedule: Q01DX009 (ip), vehicle: saline with Tween-80 108 % of control | [1] 117 % of control

CCOC(=O)c1ccccc1NC(=O)C1C2C=CC(C2)C1C(=O)O (configuration not stated)
inactive: dose: 50.0 mg/kg/injection, schedule: Q01DX009 (ip), vehicle: saline + alcohol 103 % of control | dose: 100.0 mg/kg/injection, schedule: Q01DX009 (ip), vehicle: saline + alcohol 104 % of control | dose: 200.0 mg/kg/injection, schedule: Q01DX009 (ip), vehicle: saline + alcohol 97 % of control

Cc1ccc(NC2SC(=O)N(Cc3ccccc3)/C2=N/N=C2\C(Nc3ccc(C)cc3)SC(=O)N2Cc2ccccc2)cc1 (configuration not stated)
inactive: dose: 100.0 mg/kg/injection, schedule: Q04DX002 (ip), vehicle: Klucel (hydroxypropylcellulose) (HPC) 97 % of control | dose: 200.0 mg/kg/injection, schedule: Q04DX002 (ip), vehicle: Klucel (hydroxypropylcellulose) (HPC) 97 % of control | dose: 400.0 mg/kg/injection, schedule: Q04DX002 (ip), vehicle: Klucel (hydroxypropylcellulose) (HPC) 97 % of control

CN1CCN2c3ccccc3Cc3ccccc3C2C1 (configuration not stated)
inactive: dose: 6.25 mg/kg/injection, schedule: Q01DX009 (ip), vehicle: saline 90 % of control | dose: 12.5 mg/kg/injection, schedule: Q01DX009 (ip), vehicle: saline 94 % of control | dose: 25.0 mg/kg/injection, schedule: Q01DX009 (ip), vehicle: saline 105 % of control and 107 % of control | dose: 50.0 mg/kg/injection, schedule: Q01DX009 (ip), vehicle: saline 118 % of control and 119 % of control

CCOC(=O)CC(=O)NCCc1cccc(OC)c1OC
inactive: dose: 100.0 mg/kg/injection, schedule: Q04DX003 (ip), vehicle: other 100 % of control | dose: 200.0 mg/kg/injection, schedule: Q04DX003 (ip), vehicle: other 100 % of control | dose: 400.0 mg/kg/injection, schedule: Q04DX003 (ip), vehicle: other 105 % of control

O=C1c2sccc2C2C1N2C(=O)C(F)(F)F (configuration not stated)
inactive: dose: 50.0 mg/kg/injection, schedule: Q01DX005 (ip), vehicle: saline with Tween-80 95 % of control | dose: 100.0 mg/kg/injection, schedule: Q01DX005 (ip), vehicle: saline with Tween-80 98 % of control | dose: 200.0 mg/kg/injection, schedule: Q01DX005 (ip), vehicle: saline with Tween-80 104 % of control

[O-]/[N+](=C\c1c(Cl)cccc1Cl)CC1(O)CCCCC1
inactive: [1] 96 % of control | dose: 100.0 mg/kg/injection, schedule: Q01DX009 (ip), vehicle: saline with Tween-80 90 % of control | dose: 200.0 mg/kg/injection, schedule: Q01DX009 (ip), vehicle: saline with Tween-80 99 % of control

O=C1CCC(Cc2ccccc2Br)C(=O)N1 (configuration not stated)
inactive: dose: 60.0 mg/kg/injection, schedule: Q01DX005 (ip), vehicle: saline with Tween-80 99 % of control | dose: 120.0 mg/kg/injection, schedule: Q01DX005 (ip), vehicle: saline with Tween-80 107 % of control | dose: 240.0 mg/kg/injection, schedule: Q01DX005 (ip), vehicle: saline with Tween-80 102 % of control
